From PubChem BioAssay AID179 (DTP/NCI, 2004)
Active and inactive are the calls of the source.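 Rule for the calls: active = compounds giving half or more protection of infected cells from virus-caused growth loss, again on retest; inactive = the rest.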 Where a SMILES comes first, the peptide text is derived from it. The star is where a group is joined. Cbz = O=C(OCc1ccccc1)*

Test system: CEM cells HIV-1 protection, formazan growth assay
Assay: NCI AIDS Antiviral Assay
Conditions: for IC50: measured here: growth of uninfected CEM cells
Method in brief: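 Steps: treat uninfected and HIV-1-infected human CEM cells at five drug levels; quantify growth by soluble formazan; retest any compound reaching 50% protection; classify actives from the retest.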

Compound | EC50 [µM] | IC50 [µM] | outcome
O=S(=O)(O)c1ccc(NN(c2c(O)ccc3ccccc23)S(=O)(=O)O)cc1 | > 550 | 229 | –
O=C1c2cccc3cccc(c23)C(=O)N1CCO | > 200 | 13.8 | –
CCCCCC(=O)c1ccc2[nH]c3c(C)cc([N+](=O)[O-])c(C)c3c2c1 | > 4.27 | > 4.27 | –
O=C1CCC2(O)c3ccccc3C2Cc2ccccc21 (stereo unspecified) | > 200 | > 200 | –
COC(=O)CN(CC1O[C@@H]2OC(C)(C)O[C@@H]2C1N=[N+]=[N-])C(=O)OCc1ccccc1 (stereo partly specified) | > 200 | 20.9 | –
CC(=O)Nc1ccc([As](=O)(O)O)cc1C(=O)O | > 200 | > 200 | –
N#CCC(=O)NN=C1CCCCC1 | > 200 | > 200 | –
NC(=O)c1cc2ccccc2[n+](Cc2ccc(F)cc2)c1 | 200 | 339 | –
CC(C)/C(Cl)=N/OC(=O)Nc1cccc(C(F)(F)F)c1 | > 20 | 3.02 | –
O=[N+]([O-])C(=C1NCCN1)/C(Cl)=C(\Cl)Br | > 200 | 16.6 | –
C=C1C(=O)OC2/C=C(\C=O)CC/C=C(\C)C(O)C[C@@H]12 (stereo partly specified) | > 200 | 2.95 | –
Cc1nc(C(=Nc2ccc(Br)cc2)Nn2cnnc2)no1 | > 200 | – | –
COc1cc(OC)c2nc3ccccc3c(NCCC[N+](C)(C)[O-])c2c1[N+](=O)[O-] | > 200 | 132 | –
COC(=O)[C@@]1(C(C)CC(=O)O)CCCCC1=O (stereo partly specified) | > 1020 | 214 | –
COCC(O)COn1c(=O)c(C#N)[n+]([O-])c2ccccc21 (stereo unspecified) | > 200 | 30.2 | –
Cc1nc2c(O)ccc(O)c2nc1C | > 200 | 17.8 | –
C=CCN1CC2CON(C(=O)C(OC)(c3ccccc3)C(F)(F)F)C2C1C(C)C (stereo unspecified) | > 200 | 37.2 | –
Cc1ccc(S(=O)CC(CF)OCn2cc(C)c(=O)[nH]c2=O)cc1 (stereo unspecified) | – | – | inactive
COP(=O)(OC)C(=O)N1N(c2ccc([N+](=O)[O-])cc2)C(=O)C(C)NC1(NNc1ccc([N+](=O)[O-])cc1)P(=O)(OC)OC (stereo unspecified) | > 107 | 56.2 | –
CC(C)(C)c1ccc(OCCOc2ccc(C(C)(C)C)cc2N)c(N)c1 | > 200 | > 200 | –
O=C(CCCn1ccnc1[N+](=O)[O-])NCCn1ccnc1 | – | – | inactive
CCCC(CC)c1cc(O)c(O)cc1C(CC)CCC (stereo unspecified) | > 200 | 105 | –

Compound | EC50 [µM] | IC50 [µM] | outcome
O=c1c(O)c(-c2cc(O)c(O)c(O)c2)oc2cc(O)ccc12 | > 832 | 11.7 | –
O=C(CC(C(=O)c1ccsc1)c1cccs1)c1ccccc1 (stereo unspecified) | > 200 | 49 | –
O=C(O)C(CO)NC(=O)C1CCCN1C(=O)OCc1ccccc1 (stereo not drawn) (Cbz-Pro-Ser-OH; configuration not given here) | > 77.6 | > 77.6 | –
COc1cc(OC)c(/C=C\c2nccc3ccccc23)c(OC)c1 | > 200 | 13.8 | –
O=c1onc2c3ccccc3ncn12 | > 200 | > 200 | –
Nn1c(-c2ccccc2)nn(C(=O)c2ccccc2)c1=O | > 200 | > 200 | –
CCCCCCCCCCCCSSSCCCCCCCCCCCC | > 200 | > 200 | –
CCOC(=O)c1nc2cc(C(F)(F)F)ccc2nc1Nc1cc(OC)c(OC)c(OC)c1 | – | – | inactive
CN(/N=C/c1ccccc1O)c1ccc2ccccc2n1 | > 200 | 126 | –
O=C(CC(=O)N1N=C(c2ccccc2)C(N=Nc2ccc(Cl)cc2)C1=O)Nc1ccccc1Cl (stereo unspecified) | > 38 | > 38 | –
Cc1ccc(S(=O)(=O)NN=C2C(C)(C)CC2(C)C)cc1 | > 200 | > 200 | –
CCCCCC#COC1CC(C)CC[C@@H]1C(C)C (stereo partly specified) | > 200 | 110 | –
O=C(O)C12C3CCC(C3)C1(C(=O)O)C1CCC2C1 (stereo unspecified) | > 1000 | > 1000 | –
C[C@H]1c2cccc(O)c2C(O)=C2C(=O)[C@]3(O)C(O)=C(C(N)=O)C(=O)[C@@H](N(C)C)[C@@H]3[C@@H](O)[C@@H]21 | > 186 | 8.32 | –
C=C(C)C(=O)OC1CC2=CC(CC3(C)OC3C3OC(=O)C(=C)C13)OC2=O (stereo unspecified) | > 200 | 2.4 | –
NC1(C(=O)O)C2CC3CC(C2)CC1C3 (stereo unspecified) | – | – | inactive
C=C(C)C(=O)N1c2ccc(OC)cc2CC1C(=O)OCC (stereo unspecified) | > 200 | > 200 | –
COC(=O)C1=CCC(n2cc(C)c(=O)[nH]c2=O)CC1 (stereo unspecified) | > 257 | > 257 | –
O=C1/C(=C/c2ccc(O)c(O)c2)CC/C1=C\c1ccc(O)c(O)c1 | > 200 | 10.7 | –
COc1ccc(N=C(Nc2ccc(OC)cc2)C(=Nc2ccc(OC)cc2)Nc2ccc(OC)cc2)cc1 | > 200 | 28.2 | –
COc1ccc2occ(CCC(=O)O)c2c1 | – | – | inactive
COc1cc2c(oc(=O)c3c4occc4cc(OC)c23)c2cccc(O)c12 | > 1.45 | > 1.45 | –

Compound | EC50 [µM] | IC50 [µM] | outcome
CC(C)(C)c1ccc(-n2c3nc(=O)n(-c4ccccc4C(F)(F)F)c(=O)c-3cc3ccccc32)cc1 | > 200 | 15.8 | –
CC(O)C(O)C(N)CC=O (stereo unspecified) | > 200 | > 200 | –
Cc1cc(C)cc(Sc2c([N+](=O)[O-])ncn2C)c1 | > 27.5 | 16.2 | –
COc1c2occc2cc2ccc(=O)oc12 | > 83.2 | > 83.2 | –
CN1CN(c2ccccc2)C2(CCN(C3Nc4ccccc4O3)CC2)C1=O (stereo unspecified) | > 200 | 74.1 | –
Cc1cc(-c2ccc(N=Nc3c(N)c(S(=O)(=O)O)cc4cc(S(=O)(=O)O)ccc34)c(C)c2)ccc1N=Nc1c(N)ccc2cc(S(=O)(=O)O)ccc12 | – | – | active
CCCCCCCCCO/N=C\c1c2c(O)c3c(O)c(C)c4c(c3c1O)C(=O)C(C)(O/C=C\C(OC)C(C)C(OC(C)=O)C(C)C(O)C(C)C(O)C(C)/C=C\C=C(\C)C(=O)N2)O4 (stereo unspecified) | > 200 | 3.16 | –
CCC(C)C(NC(=O)CNC(=O)CN)C(=O)NCC(=O)NCC(=O)O (stereo unspecified) (HELM PEPTIDE1{G.G.[CCC(C)C(N[*:1])C(=O)[*:2]].G.G}$$$$V2.0) | > 69.2 | > 69.2 | –
N=CCCN(CCC=N)c1ccc(/C=C2\CN(NC(=O)c3ccc(Cl)cc3)C(c3ccccc3)=N2)cc1 | > 70.8 | > 70.8 | –
CCOC(=O)C1=C(C)NC(C)=C(C(=O)OCCNC(=O)c2ccc(N=[N+]=[N-])cc2)C1c1ccccc1C(F)(F)F (stereo unspecified) | > 200 | 10.5 | –
C[N+](C)(C)CC1CCCC/C1=N\O (stereo unspecified) | > 794 | > 794 | –
CN1/C(=C\N=O)C(C)(C)N(O)C1(C)C | > 200 | > 200 | –
CC1OC(n2cnc3c(N)nc(Cl)nc32)C(C)(O)C1O (stereo unspecified) | – | – | inactive
CCOC(=O)C(CCSC)(CCSC)C(=O)OCC | > 200 | > 200 | –
COc1ccc2c(c1)[C@@H]1c3cc(OC)c(OC)cc3CCN1CCC2 | > 200 | > 200 | –
COc1cc2c(c([N+](=O)[O-])c1)NC(=O)CS2 | > 200 | 79.4 | –
O=C(N/C(=C\c1ccc2c(c1)OCO2)c1nc2ccccc2[nH]1)c1ccccc1 | > 26.3 | > 26.3 | –
CCn1c(=O)ccc2ccc(N(CCO)CCO)nc21 | > 200 | 151 | –
CCOC(=O)c1ccc(CSc2ccc(OC)cc2)cc1 | > 33.1 | 16.2 | –
C=C(C)[C@@H]1CC[C@]2(COC(=O)CC(C)(CC)CC(=O)O)CC[C@]3(C)[C@H](CC[C@@H]4[C@@]5(C)CC[C@H](OC(=O)CC(C)(CC)CC(=O)O)C(C)(C)[C@@H]5CC[C@]43C)[C@@H]12 (stereo partly specified) | > 200 | 9.55 | –
Cc1cn(C2CC(O)C(CO)(C(F)(F)F)O2)c(=O)[nH]c1=O (stereo unspecified) | > 200 | > 200 | –
O=C(Nc1ccccc1)N(C1=NCC(CI)S1)c1ccc(F)c(F)c1 (stereo unspecified) | > 200 | 18.2 | –

Compound | EC50 [µM] | IC50 [µM] | outcome
O=C([CH-]C(=O)c1ccccc1)c1ccccc1.O=C([CH-]C(=O)c1ccccc1)c1ccccc1.[OH-].[OH-].[Ti+4] | > 25.7 | > 25.7 | –
O=C1NC(=O)C(C(=O)C(=O)Nc2cccc(C(F)(F)F)c2)C(=O)N1 | > 39.8 | > 39.8 | –
C=CC1=CSNN1 | > 437 | 347 | –
OC1(O)/C=C\CCCCC/C=C\1 | > 200 | 129 | –
C=CCN1C(=O)CS/C1=N\NC(=O)CSc1nc2ccccc2c(=O)n1CC | > 200 | > 200 | –
CN(C(=O)C1(C(=O)C=[N+]=[N-])CC1)c1ccccc1 | > 1020 | > 1020 | –
O=C(O)C(=Cc1ccc(-c2ccc([N+](=O)[O-])cc2)o1)C(=O)O | > 200 | > 200 | –
COC(=O)/C=C/c1cc2c(cc1-c1c(C(=O)O)cc(OC)c(OC)c1OC)OCO2 | > 603 | > 603 | –
CC(C)c1cc(C(C)C)c(S(=O)(=O)N/N=C2\CC3CCC2(C)C3(C)C)c(C(C)C)c1 (stereo unspecified) | > 200 | 18.6 | –
c1ccc(CC2COC(c3cccs3)=N2)cc1 (stereo unspecified) | > 200 | 126 | –
O=[N+]([O-])C1CC/C(=N/O)c2nonc21 (stereo unspecified) | > 200 | 123 | –
CCCCOC(=O)NC(Nc1ccc(S(=O)(=O)Nc2ncccn2)cc1)(C(F)(F)F)C(F)(F)F | > 200 | > 200 | –
CC(=O)N=c1ccc2nc(N)nn(O)c-2c1 | > 200 | > 200 | –
C1=C(c2ccccc2)SC(N2CCCCC2)S1 (stereo unspecified) | – | – | inactive
CCSc1n/c(=C\c2ccco2)c2nnnn12 | > 50.1 | > 50.1 | –
CC[C@H](C)[C@H](NC(=O)N(CCC#N)CCN(CCN(C(=O)N[C@@H](Cc1ccccc1)C(=O)OC)c1ccccc1)C(=O)N[C@H](C(=O)OC)C(C)C)C(=O)OC | – | – | inactive
CCCCOC(=O)c1ccc(N)cc1 | > 200 | – | –
COC(=O)C(CC(=O)Nc1ccc(C)cc1)C(=O)C(=O)Nc1ccccc1C(C)C (stereo unspecified) | > 229 | > 229 | –
COc1ccc(N2C(=O)c3c(c4[nH]c5ccccc5c4c4ccc(C(C)(C)C)cc34)C2=O)cc1 | > 11.5 | > 11.5 | –
O=C1/C(=C/c2ccc(OC(=O)c3ccccc3)cc2)CCC/C1=C\c1ccc(OC(=O)c2ccccc2)cc1 | > 100 | > 100 | –
